We go through 3 molecules from paper PMC11649115, “In vitro safety evaluation of dopamine D3R antagonist, R-VK4-116, as a potential medication for the treatment of opioid use disorder” (PLOS ONE, 2024).

What is called half-life is the time needed for the level to fall by half in the phase considered. For orientation: hepatocyte CLint means a measure of how fast metabolising enzymes remove a compound, apart from limits set by blood flow. Broadly, the Papp A→B is the apparent permeability from the apical to the basolateral side of a cell layer. The term Papp B→A denotes how fast a substance crosses the layer from the basolateral side. The term inhibition denotes the percentage by which the read-out fell short of the control.

Series [1] in a line: Metabolic stability in hepatocyte. The settings on record: human, hepatocytes.
Protocol: (§1) CYP3A4 substrate Midazolam (10 μM) was prepared and incubated in the same manner. […] In addition, in vitro half-life (t1/2, min) and intrinsic clearance (CLint, μl/min/10^6 cells) were calculated [10, 11].
A further series has as its system human hepatocytes. The series can be described thus: Metabolic stability in hepatocyte. The settings on record: human hepatocytes, 10 μM.
The nature of series [2]: Metabolic stability in hepatocyte. The settings on record: Sprague Dawley, rat, hepatocytes.
Protocol: as §1
For the next series, the system named is rat hepatocytes. The experiment in a line: Metabolic stability in hepatocyte. The settings on record: rat hepatocytes, 10 μM.
The nature of series [3]: Metabolic stability in hepatocyte. The settings on record: Beagle, dog, hepatocytes.
Protocol: as §1
For another series, the system named is dog hepatocytes. The experiment in a line: Metabolic stability in hepatocyte. The settings on record: dog hepatocytes, 10 μM.
Series [4] is described as follows: Stability in the absence of hepatocytes. The settings on record: no hepatocytes, 10 μM.
Protocol: as §1
A short description of series [5]: Metabolic stability in liver microsomes. (In general: Microsomes from liver hold many membrane-bound enzymes, among them those of drug oxidation.)
Series [6] in a line: Metabolic stability in liver microsomes. The source holds these as a separate data set.
Series [7] can be described thus: Metabolic stability in liver microsomes. The settings on record: for % remaining: dog liver microsomes, 10 μM.
The nature of series [8]: Metabolic stability in liver microsomes. The settings on record: for % remaining: monkey liver microsomes, 10 μM.
The target of another series is T1, BCRP (Homo sapiens, UniProt Q9UNQ0).
T1 construct: expressed in transfected cells; host or cells: MDCK-II cells
T1 sequence (Q9UNQ0 1-655): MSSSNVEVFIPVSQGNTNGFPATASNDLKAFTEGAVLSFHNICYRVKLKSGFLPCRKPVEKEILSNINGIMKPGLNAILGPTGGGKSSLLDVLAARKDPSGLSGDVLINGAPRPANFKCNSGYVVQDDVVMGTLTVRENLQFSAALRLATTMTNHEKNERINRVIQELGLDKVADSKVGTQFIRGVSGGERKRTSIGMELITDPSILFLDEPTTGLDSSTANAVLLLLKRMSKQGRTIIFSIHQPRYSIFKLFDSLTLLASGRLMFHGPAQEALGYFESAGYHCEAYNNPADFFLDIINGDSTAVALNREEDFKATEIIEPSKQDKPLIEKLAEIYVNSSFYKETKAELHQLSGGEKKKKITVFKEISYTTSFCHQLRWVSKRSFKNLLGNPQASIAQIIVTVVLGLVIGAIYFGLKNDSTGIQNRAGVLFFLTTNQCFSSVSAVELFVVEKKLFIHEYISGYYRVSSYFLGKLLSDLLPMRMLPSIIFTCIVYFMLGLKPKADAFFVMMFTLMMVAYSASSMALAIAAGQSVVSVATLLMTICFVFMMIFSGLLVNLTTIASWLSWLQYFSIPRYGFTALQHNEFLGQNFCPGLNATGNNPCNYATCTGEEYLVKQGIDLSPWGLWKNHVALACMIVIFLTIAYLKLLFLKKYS
The series can be described thus: Transporter mediated assay (substrate/inhibitor), MDCK-II cells. In kind it is in vitro ADME. The settings on record: BCRP, substrate test, 2 µM.

A further series has as its target T2, OCT2 (Homo sapiens, UniProt O15244).
T2 construct: expressed in transfected cells; host or cells: MDCK-II cells
T2 sequence (O15244 1-555): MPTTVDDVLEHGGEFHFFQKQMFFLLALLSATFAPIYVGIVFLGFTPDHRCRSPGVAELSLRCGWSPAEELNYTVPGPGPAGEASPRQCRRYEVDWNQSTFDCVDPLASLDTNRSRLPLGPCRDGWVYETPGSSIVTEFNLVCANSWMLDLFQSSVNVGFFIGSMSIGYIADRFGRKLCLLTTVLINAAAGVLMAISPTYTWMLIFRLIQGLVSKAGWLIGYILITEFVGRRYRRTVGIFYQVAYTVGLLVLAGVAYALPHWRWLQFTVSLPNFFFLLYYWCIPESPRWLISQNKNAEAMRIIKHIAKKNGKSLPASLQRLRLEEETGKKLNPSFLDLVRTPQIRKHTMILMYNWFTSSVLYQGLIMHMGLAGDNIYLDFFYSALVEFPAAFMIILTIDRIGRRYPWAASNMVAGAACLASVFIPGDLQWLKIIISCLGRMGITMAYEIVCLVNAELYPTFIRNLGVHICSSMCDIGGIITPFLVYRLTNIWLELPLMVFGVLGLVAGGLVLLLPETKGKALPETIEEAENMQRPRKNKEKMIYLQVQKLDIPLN
The description is as above. The series is classed as in vitro ADME. The settings on record: human, polarized monolayer of MDCK-II cells expressing OCT2; OCT2, No BSA, 1000 μM.

In another series the target is T3, P-gp (Homo sapiens, UniProt P08183).
T3 construct: expressed in transfected cells; host or cells: MDCK-II cells
T3 sequence (P08183 whole entry): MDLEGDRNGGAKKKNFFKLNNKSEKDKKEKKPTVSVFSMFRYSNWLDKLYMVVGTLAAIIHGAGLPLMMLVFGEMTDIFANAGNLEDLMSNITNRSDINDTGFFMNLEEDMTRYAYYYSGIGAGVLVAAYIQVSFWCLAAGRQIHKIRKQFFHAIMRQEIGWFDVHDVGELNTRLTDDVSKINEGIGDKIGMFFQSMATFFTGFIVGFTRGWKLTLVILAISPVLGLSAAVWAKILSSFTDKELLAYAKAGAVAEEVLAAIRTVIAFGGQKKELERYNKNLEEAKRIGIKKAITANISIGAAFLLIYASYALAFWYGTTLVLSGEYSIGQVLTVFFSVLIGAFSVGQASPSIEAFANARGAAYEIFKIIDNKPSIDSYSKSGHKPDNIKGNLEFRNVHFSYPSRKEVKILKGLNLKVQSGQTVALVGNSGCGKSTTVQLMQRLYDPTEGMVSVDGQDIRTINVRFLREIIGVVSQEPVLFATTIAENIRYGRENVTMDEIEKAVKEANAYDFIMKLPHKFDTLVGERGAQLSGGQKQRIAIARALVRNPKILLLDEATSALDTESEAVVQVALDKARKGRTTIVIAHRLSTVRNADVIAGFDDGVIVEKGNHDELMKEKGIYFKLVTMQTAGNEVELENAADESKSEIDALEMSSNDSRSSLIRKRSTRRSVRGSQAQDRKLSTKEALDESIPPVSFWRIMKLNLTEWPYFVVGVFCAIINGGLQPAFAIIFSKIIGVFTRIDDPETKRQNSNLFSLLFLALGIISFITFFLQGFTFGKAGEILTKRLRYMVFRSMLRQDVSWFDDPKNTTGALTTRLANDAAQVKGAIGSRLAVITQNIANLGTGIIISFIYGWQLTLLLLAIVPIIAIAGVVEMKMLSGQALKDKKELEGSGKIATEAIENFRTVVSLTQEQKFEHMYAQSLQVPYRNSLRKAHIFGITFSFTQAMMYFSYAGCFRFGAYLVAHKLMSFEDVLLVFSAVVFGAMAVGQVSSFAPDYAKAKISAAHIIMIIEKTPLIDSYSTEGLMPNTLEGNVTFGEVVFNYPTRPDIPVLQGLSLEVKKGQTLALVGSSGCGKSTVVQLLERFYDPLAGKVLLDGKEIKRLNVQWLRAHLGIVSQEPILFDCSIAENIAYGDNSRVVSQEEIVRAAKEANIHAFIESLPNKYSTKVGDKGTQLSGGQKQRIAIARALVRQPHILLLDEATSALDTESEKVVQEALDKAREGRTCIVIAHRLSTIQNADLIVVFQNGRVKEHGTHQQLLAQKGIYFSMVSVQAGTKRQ
The series is described as above. The series is classed as in vitro ADME. The settings on record: P-gp, substrate test, 0.1 µM.

The target of a further series is T4, CYP1A2 (Homo sapiens, UniProt P05177).
T4 sequence (P05177 1-516): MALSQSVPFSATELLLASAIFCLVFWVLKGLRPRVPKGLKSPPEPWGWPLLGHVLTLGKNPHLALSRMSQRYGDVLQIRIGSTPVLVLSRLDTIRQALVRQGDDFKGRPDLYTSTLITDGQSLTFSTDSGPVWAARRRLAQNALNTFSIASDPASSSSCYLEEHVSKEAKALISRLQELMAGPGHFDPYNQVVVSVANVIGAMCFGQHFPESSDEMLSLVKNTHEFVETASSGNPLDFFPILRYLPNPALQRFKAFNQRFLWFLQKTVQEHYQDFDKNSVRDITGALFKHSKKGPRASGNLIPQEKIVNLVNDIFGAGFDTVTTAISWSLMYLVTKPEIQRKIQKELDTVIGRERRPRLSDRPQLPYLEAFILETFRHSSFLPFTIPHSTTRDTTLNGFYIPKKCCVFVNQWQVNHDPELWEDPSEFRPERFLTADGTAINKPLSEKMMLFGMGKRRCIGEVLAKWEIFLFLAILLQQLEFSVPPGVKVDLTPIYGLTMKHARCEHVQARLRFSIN
The series can be described thus: CYP inhibition in human liver microsomes. The settings on record: human, human liver microsomes, probe phenacetin.

The target of a further series is T5, CYP2B6 (Homo sapiens, UniProt P20813).
T5 sequence (P20813 1-491): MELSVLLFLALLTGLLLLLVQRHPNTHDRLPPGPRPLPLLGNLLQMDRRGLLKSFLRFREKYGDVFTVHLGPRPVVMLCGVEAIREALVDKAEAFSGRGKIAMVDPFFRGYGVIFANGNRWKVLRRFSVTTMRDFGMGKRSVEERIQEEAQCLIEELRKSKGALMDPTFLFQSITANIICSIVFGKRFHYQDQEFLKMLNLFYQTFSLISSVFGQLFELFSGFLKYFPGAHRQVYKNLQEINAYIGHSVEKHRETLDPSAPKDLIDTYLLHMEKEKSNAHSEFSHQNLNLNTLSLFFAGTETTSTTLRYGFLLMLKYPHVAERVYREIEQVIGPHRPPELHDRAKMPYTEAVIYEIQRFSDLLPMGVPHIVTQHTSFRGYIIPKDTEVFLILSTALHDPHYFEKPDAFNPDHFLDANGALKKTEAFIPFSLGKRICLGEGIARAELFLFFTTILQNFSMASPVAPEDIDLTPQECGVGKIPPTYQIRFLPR
The series can be described thus: CYP inhibition in human liver microsomes. The settings on record: human, human liver microsomes, probe bupropion.

The target in the next series is T6, CYP2C8 (Homo sapiens, UniProt P10632).
T6 sequence (P10632 1-490): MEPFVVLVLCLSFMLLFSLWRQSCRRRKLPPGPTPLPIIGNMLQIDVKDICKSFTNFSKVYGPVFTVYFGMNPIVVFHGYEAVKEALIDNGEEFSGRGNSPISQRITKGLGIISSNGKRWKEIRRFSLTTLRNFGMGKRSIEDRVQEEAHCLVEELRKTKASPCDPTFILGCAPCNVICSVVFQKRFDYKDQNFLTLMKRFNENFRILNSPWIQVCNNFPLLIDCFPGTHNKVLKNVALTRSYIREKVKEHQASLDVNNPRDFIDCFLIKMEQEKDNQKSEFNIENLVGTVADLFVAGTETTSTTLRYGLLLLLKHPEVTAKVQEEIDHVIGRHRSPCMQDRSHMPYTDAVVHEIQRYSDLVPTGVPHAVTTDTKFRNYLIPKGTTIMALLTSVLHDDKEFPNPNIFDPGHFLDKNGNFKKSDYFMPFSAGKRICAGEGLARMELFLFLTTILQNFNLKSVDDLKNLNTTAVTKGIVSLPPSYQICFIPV
The experiment in a line: CYP inhibition in human liver microsomes. The settings on record: human, human liver microsomes, probe paclitaxel.

The next series concerns the target CYP2C9 (Homo sapiens, UniProt P11712). The series can be described thus: CYP inhibition in human liver microsomes. The settings on record: human, human liver microsomes, probe diclofenac.
A further series deals with CYP2C19 (Homo sapiens, UniProt P33261). The series can be described thus: CYP inhibition in human liver microsomes. The settings on record: human, human liver microsomes, probe mephenytoin.
Sequence of CYP2C19 (P33261 whole entry): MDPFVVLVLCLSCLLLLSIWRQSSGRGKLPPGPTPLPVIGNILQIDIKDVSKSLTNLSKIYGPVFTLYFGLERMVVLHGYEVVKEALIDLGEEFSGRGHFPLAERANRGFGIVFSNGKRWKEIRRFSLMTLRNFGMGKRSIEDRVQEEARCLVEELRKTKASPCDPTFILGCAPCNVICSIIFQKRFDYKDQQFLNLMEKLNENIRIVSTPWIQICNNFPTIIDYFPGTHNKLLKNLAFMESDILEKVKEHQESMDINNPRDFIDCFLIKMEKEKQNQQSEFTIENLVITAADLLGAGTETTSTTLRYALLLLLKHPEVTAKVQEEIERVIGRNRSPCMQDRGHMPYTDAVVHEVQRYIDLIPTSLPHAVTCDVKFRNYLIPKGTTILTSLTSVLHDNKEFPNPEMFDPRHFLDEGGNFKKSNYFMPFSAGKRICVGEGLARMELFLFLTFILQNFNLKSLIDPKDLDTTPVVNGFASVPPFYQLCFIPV
The target in the next series is CYP2D6 (Homo sapiens, UniProt P10635). The series can be described thus: CYP inhibition in human liver microsomes. The settings on record: human, human liver microsomes, probe bufuralol.
Sequence of CYP2D6 (P10635 whole entry): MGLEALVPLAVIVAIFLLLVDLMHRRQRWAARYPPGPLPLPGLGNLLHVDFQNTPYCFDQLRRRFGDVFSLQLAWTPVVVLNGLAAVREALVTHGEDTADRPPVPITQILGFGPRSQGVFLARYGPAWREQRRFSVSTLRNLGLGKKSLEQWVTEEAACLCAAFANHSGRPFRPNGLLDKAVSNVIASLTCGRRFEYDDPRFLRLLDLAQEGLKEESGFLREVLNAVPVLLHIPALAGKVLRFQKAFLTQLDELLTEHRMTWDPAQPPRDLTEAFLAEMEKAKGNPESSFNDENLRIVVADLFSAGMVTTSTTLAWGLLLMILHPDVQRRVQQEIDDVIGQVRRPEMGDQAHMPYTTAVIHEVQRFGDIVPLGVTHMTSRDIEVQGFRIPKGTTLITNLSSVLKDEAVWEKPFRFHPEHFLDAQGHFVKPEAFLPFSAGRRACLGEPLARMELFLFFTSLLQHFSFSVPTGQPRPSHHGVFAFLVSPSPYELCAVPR

Sequence of CYP2C9 (P11712 whole entry): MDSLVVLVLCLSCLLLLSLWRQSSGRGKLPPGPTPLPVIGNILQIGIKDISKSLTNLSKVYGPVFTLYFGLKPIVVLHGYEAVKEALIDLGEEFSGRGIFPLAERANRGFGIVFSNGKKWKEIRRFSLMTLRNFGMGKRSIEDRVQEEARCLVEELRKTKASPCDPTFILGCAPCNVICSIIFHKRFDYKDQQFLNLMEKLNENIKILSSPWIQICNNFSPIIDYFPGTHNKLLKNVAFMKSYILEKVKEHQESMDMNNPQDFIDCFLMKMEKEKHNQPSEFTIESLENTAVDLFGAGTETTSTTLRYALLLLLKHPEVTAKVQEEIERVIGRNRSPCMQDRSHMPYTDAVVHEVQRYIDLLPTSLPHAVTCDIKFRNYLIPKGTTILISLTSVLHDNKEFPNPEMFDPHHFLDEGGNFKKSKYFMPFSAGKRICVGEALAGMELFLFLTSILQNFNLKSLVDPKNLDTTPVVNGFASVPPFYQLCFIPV
Protocol for BCRP: (§2) The MDCK-II cells were treated to express the transporter of interest.
(§3) For BCRP and P-gp, the apparent permeability Papp and Efflux Ratio (ER) were calculated [16]. Net basal (B) to apical (A) flux (B → A) of the substrate transport (pmol/min/cm^2) by BCRP or P-gp was calculated by subtracting A → B flux from B → A flux.
Protocol for OCT2: The MDCK-II cells were treated to express the transporter of interest. The transport of each probe substrate was determined by radiometric detection (Fig 1 in S1 File). […] For the uptake assay, the net transporter-mediated uptake-rate (V) of the substrate by each SLC transporter was calculated as follows: Transporter–mediatedupdaterate(pmol/min/cm^2)=(Cellularaccumulationincellsexpressingthetransporter)−(Meancellularaccumulationincontrolcells)/Surfacearea×incubationtime
Fold of activity and percent inhibition were determined as follows: Foldofactivity=(Meanuptakerate)transporterexpressingcells/(Meanuptakerate)controlcells Percentinhibition=100−100×(Transport‐mediatedupdaterate)withinhibitor/(Transport‐mediatedupdaterate)vehiclecontrol
Protocol for P-gp: as §2, §3
Protocol for dog hepatocytes: as §1
Protocol for human hepatocytes: as §1
Protocol for rat hepatocytes: as §1

As for `Cc1ncc2n1-c1ccc(Cl)cc1C(c1ccccc1F)=NC2` [Midazolam, reference compound], the half-life at 10 μM came out at 4.45 h in series [1], 3.22 h in series [2] and 0.855 h in series [3]. Besides, the hepatocyte CLint at 10 μM turned out to be 5.2 µL/min/1e6 cells in [1], 7.2 µL/min/1e6 cells in [2] and 27 µL/min/1e6 cells in series [3]. The “% remaining Vs T = 0 min” value with human hepatocytes (0 min) was found to be 100.0%; in the series on human hepatocytes (30 min), 91.7%; in the series with human hepatocytes (60 min), 85.3%; in the series on human hepatocytes (90 min) it was 80.7%; in the series on human hepatocytes (120 min), 72.4%; in the series with rat hepatocytes (0 min), 100.0%. Also, the “% remaining Vs T = 0 min” value with rat hepatocytes (30 min) is given as 89.0%; in the series on rat hepatocytes (60 min) it was 77.8%; in the series on rat hepatocytes (90 min), 70.5%; in the series with rat hepatocytes (120 min), 65.7%; with dog hepatocytes (0 min) it was 100.0%; in the series on dog hepatocytes (30 min) it was 66.6%. In addition, the “% remaining Vs T = 0 min” value is listed as 50.8% with dog hepatocytes (60 min); 31.2% with dog hepatocytes (90 min); 19.5% in the series on dog hepatocytes (120 min); 100.0% in series [4] (0 min); 97.7% in [4] (30 min); 97.6% in [4] (60 min). The “% remaining Vs T = 0 min” value is listed as 98.6% in [4] (90 min) and 98.5% in [4] (120 min). The “% remaining” value in series [5] (human liver microsomes, 10 μM, 120 min) was 0.0%; in series [6] (rat liver microsomes, 10 μM, 120 min) it was 0.0%; in series [7] (90 min), 0.0%; in [7] (120 min), 0.0%; in series [8] (60 min) it was 0.0%; in series [8] (90 min) it was 0.0%. For the same molecule, the “% remaining” value in series [8] (120 min) came to 0.0%. For the same molecule, the share remaining at 0 h, 10 μM in series [5] (human, microsomes, pH 7.4) worked out at 100%; in [6] (rat, microsomes, pH 7.4), 100%; in series [7] (dog, microsomes, pH 7.4) it was 100%; in [8] (monkey, microsomes, pH 7.4) it was 100%. Also, the share remaining at 0.5 h, 10 μM in series [5] (human, microsomes, pH 7.4) came to 9.7%; in [6] (rat, microsomes, pH 7.4), 5.8%; in series [7] (dog, microsomes, pH 7.4), 0.3%; in series [8] (monkey, microsomes, pH 7.4), 0.1%. For the same molecule, the fraction remaining at 1 h, 10 μM in series [5] (human, microsomes, pH 7.4) was 1%; in series [6] (rat, microsomes, pH 7.4), 0.4%; in [7] (dog, microsomes, pH 7.4), 0.1%. Further, the share remaining at 1.5 h, 10 μM in series [5] (human, microsomes, pH 7.4) stood at 0.2%; in series [6] (rat, microsomes, pH 7.4), 0.1%. Further, the fraction remaining at 2 h, 10 μM in series [5] (human, microsomes, pH 7.4) was found to be 101%; in series [6] (rat, microsomes, pH 7.4) it was 102%; in series [7] (dog, microsomes, pH 7.4), 95.8%; in [8] (monkey, microsomes, pH 7.4), 91.8%.
`COc1cc2nc(N3CCN(C(=O)c4ccco4)CC3)nc(N)c2cc1OC` [prazosin, reference compound]: at BCRP, the Papp A→B at 2 µM came out at 8.06 ± 0.76 ×10⁻⁶ cm/s and the Papp B→A at 2 µM came to 47.7 ± 2.77 ×10⁻⁶ cm/s.
As for `C=C[C@H]1C[N@@]2CC[C@H]1C[C@@H]2[C@@H](O)c1ccnc2ccc(OC)cc12` [quinidine, reference compound], on OCT2, the inhibition at 1000 µM was 100 ± 0.21%. Also, the “Vectorial Net Transport (B->A) - (A->B)” value on P-gp came out at 0.52 ± 0.03 pmoles/min/cm^2. On P-gp (human, MDCK-MDR1), this molecule showed a Papp A→B at 0.1 µM of 2.62 ± 0.42 ×10⁻⁶ cm/s. At P-gp (human, MDCK-MDR1), the Papp B→A at 0.1 µM was 80.7 ± 4.23 ×10⁻⁶ cm/s. Moreover, the activity at 20 min, 2 µM at CYP1A2 is 88.3 ± 1%; at CYP2B6, 91.6 ± 2.4%; on CYP2C8, 71.3 ± 2.2%; at CYP2C9 it was 82.7 ± 1.1%; on CYP2C19, 97.7 ± 2.3%; on CYP2D6, 17.3 ± 0.2%.
